The text below walks through data of patent US9556231B2, “Beta-hairpin peptidomimetics as CXC4 antagonists” (POLYPHOR AG, priority 2011, dated 2017).

A short description of data set [1]: Cytotoxicity, MTT reduction assay, COS-7 cells. In kind it is cell-based. As to conditions: African green monkey. The procedure: Namalwa cells (CXCR4 natively expressing non-adherent cells, ATCC CRL-1432) were cultured in RPMI1640 plus 10% FBS, and pen/strept. HELA cells were maintained in RPMI1640 plus 10% FBS, pen/strept and 2 mM L-glutamine. Cos-7 cells were grown in DMEM medium with […] glucose supplemented with 10% FCS, pen/strept and 2 mM L-glutamine. All cell lines were grown at 37° C. at 5% CO2. Cell media, media supplements, PBS-buffer, HEPES, antibiotic/antimycotic, pen/strept, non essential amino acid, L-glutamine, β-mercaptoethanol and sera were purchased from Gibco (Pailsey, UK). All fine chemicals were supplied by Merck (Darmstadt, Germany).
The cytotoxicity of the peptides to HELA cells (Acc57) and COS-7 cells (CRL-1651) was determined using the MTT reduction assay (T. Mossman, J. Immunol. Meth. 1983, 65, 55-63; M. V. Berridge, A. S. Tan, Arch. Biochem. Biophys. 1993, 303, 474-482). Briefly, the method was as follows: 4000 HELA cells/well and 3400 COS-7 cells/well were seeded and grown in 96-well microtiter plates for 24 h at 37° C. at 5% CO2. Thereafter, time zero (Tz) was determined by MTT reduction (see below). The supernatant of the remaining wells was discarded, and fresh medium and compounds in serial dilutions (12.5, 25 and 50 μM, triplicates; 0 μM, blank) were pipetted into the wells. After incubation of the cells for 48 h at 37° C. at 5% CO2 the supernatant was discarded again and 100 μL MTT reagent (0.5 mg/mL in RPMI1640 and DMEM, respectively)/well was added. Following incubation at 37° C. for 2-4 h the media were aspirated and the cells were spiked (100 μL isopropanol/well). The absorbance of the solubilized formazan was measured at 595 nm (OD595peptide). For each concentration averages were calculated from triplicates. The percentage of growth was calculated as follows: (OD595peptide−OD595Tz)/(OD595blank−OD595Tz)×100%. The GI50 (Growth Inhibition) concentrations were calculated for each peptide by using a trend line function for the concentrations (50, 25, 12.5 and 0 μM), the corresponding percentages and the value 50, (=TREND (C50:C0,%50:%0,50).

The nature of data set [2]: Pharmacokinetic study (PK), i.v., CD-1 mice. Type of data set: in vivo. The following applies: male, CD-1, in vivo, iv, mouse, i.v. 1 mg/kg; for level at 0.083 h / level at 0.25 h / level at 0.5 h / level at 1 h / level at 2 h / level at 3 h / level at 4 h: read-out: Calc. Conc. (plasma); for AUC(0-inf) / Cmax / clearance / half-life / Vd: one-compartmental model; for Vd: read-out: Vdis. The procedure: For the compounds of Ex. 1, Ex. 2, Ex. 3, Ex. 4, Ex. 5 and Ex. 6 pharmacokinetic studies after intravenous (i.v.) administration were performed.
30 grams (±20%) male CD-1 mice obtained from Charles River Laboratories Deutschland GmbH were used. The vehicle, phosphate buffered saline, was added to give a final concentration of 0.5 mg/mL of the compound. The volume was 2 mL/kg and the compound was injected to give a final intravenous dose of 1 mg/kg. Approximately 300-400 μL of blood was removed under light isoflurane anesthesia by cardiac puncture at predetermined time intervals (5, 15, 30 min and 1, 2, 3, 4, hours) and added to heparinized tubes. Plasma was removed from pelleted cells upon centrifugation and frozen at −80° C. prior to HPLC-MS analysis.
Aliquots of 50 μL each of mouse plasma of untreated aminals (“blank” mouse plasma) were spiked with known amounts of the compounds Ex. 1, Ex. 2, Ex. 3, Ex. 4, Ex. 5 and Ex. 6 in order to obtain 10 plasma calibration samples for each compound in the range 1-4000 ng/mL. Aliquots of 50 μL each of mouse plasma from treated animals were used as plasma study samples.
All plasma samples were spiked with an appropriate internal standard and extracted with acetonitrile containing 2% formic acid. Supernatants were evaporated to dryness under nitrogen and the remaining solids reconstituted in water/acetonitrile 95/5 (v/v)+0.2% formic acid.
Extracts were then analyzed by reverse-phase chromatography (Acquity BEH C18, 100×2.1 mm, 1.7 μm column, Waters for Ex. 1 and Acquity HSS C18 SB, 100×2.1 mm, 1.8 μm column, Waters for Ex. 2, Ex. 3, Ex. 4, Ex. 5 and Ex. 6), using the following conditions: Ex. 1, mobile phases: (A) water/acetonitrile 95/5 (v/v)+0.1% formic acid, (B) acetonitrile/water 95/5 (v/v)+0.1% formic acid, gradient: 1% (B) 0-0.1 min, 15% (B) 0.1-2.5 min for Ex. 1 and 1% (B) 0-0.1 min, 40% (B) 0.1-2.5 min for Ex. 2, Ex. 3, Ex. 4, Ex. 5 and Ex. 6. The detection and quantification was performed by mass spectrometry, with electrospray interface in positive mode and selective fragmentation of analytes (4000 Q Trap mass spectrometer, AB Sciex).
PK parameters were calculated by WinNonLin™ software version 5.3 (Pharsight-A Certara™ Company, Mountain View, Calif. 94041 USA) using a one-compartmental model analysis. PK parameters were determined by least-square fitting of the model to the experimental data.

The mark [3] stands for this setting: MTT, 48 h, up to 50 μM, read-out: Cytotoxicity Cos-7 Cells GI50.

Read-outs that look alike come from different tables or passages of the source. Bridge positions count the residues as written; N and C are the ends. Square brackets hold non-standard residues; d marks the D form. Peptide text beside a SMILES is read from it. Lys(iPr) = CC(C)NCCCC[C@H](N)C(=O)O; Orn(iPr) = CC(C)NCCC[C@H](N)C(=O)O; Dab = NCC[C@H](N)C(=O)O

Take `CC(C)NCCCC[C@@H]1NC(=O)[C@H](CCC(N)=O)NC(=O)[C@H](Cc2ccc(O)cc2)NC(=O)[C@@H]2CSSC[C@H](NC(=O)[C@H](Cc3ccc(O)cc3)NC(=O)[C@H](Cc3c[nH]cn3)NC(=O)[C@H](Cc3ccc(O)cc3)NC(=O)[C@@H]3CCCN3C(=O)[C@H]3CCCN3C1=O)C(=O)N[C@@H](CO)C(=O)N[C@@H](C)C(=O)N1CCC[C@@H]1C(=O)N[C@@H](CCCNC(C)C)C(=O)N[C@@H](CCCNC(=N)N)C(=O)N[C@@H](Cc1ccc(O)cc1)C(=O)N2` [Ex. 1, cyclo(-Tyr^1-His^2-Tyr^3-Cys^4-Ser^5-Ala^6-^DPro^7-Orn(iPr)^8-Arg^9-Tyr^10-Cys^11-Tyr^12-Gln^13-Lys(iPr)^14-^DPro^15-Pro^16-) disulfide bond between Cys^4 and Cys^11] (cyclo(YHYCSA[dP][Orn(iPr)]RYCYQ[Lys(iPr)][dP]P); disulfide 4-11): in data set [1], the GI50 at 48 h is above 50 µM. Moreover, in data set [2], the level at 0.083 h was 1720 ng/mL, the level at 0.25 h was 989 ng/mL, the level at 0.5 h was 947 ng/mL and the level at 1 h is 373 ng/mL. Further, in data set [2], the level at 2 h was 129 ng/mL, the level at 3 h is 15 ng/mL, the AUC(0-inf) amounted to 1150 ng·h/mL and the Cmax was found to be 1830 ng/mL. In addition, in data set [2], the clearance is 14.5 mL/min/kg, the half-life was 24 min and the Vd was determined as 0.547 L/kg.
With `CC(C)NCCCC[C@@H]1NC(=O)[C@H](CCC(N)=O)NC(=O)[C@H](Cc2ccc(O)cc2)NC(=O)[C@@H]2CSSC[C@H](NC(=O)[C@H](C)NC(=O)[C@H](Cc3c[nH]cn3)NC(=O)[C@H](Cc3ccc(O)cc3)NC(=O)[C@@H]3CCCN3C(=O)[C@H]3CCCN3C1=O)C(=O)N[C@@H](CO)C(=O)N[C@@H](C)C(=O)N[C@H](Cc1ccc(O)cc1)C(=O)N[C@@H](CCN)C(=O)N[C@@H](CCCNC(=N)N)C(=O)N[C@@H](Cc1ccc(O)cc1)C(=O)N2` [Ex. 3, cyclo(-Tyr^1-His^2-Ala^3-Cys^4-Ser^5-Ala^6-^DTyr^7-Dab^8-Arg^9-Tyr^10-Cys^11-Tyr^12-Gln^13-Lys(iPr)^14-^DPro^15-Pro^16-), disulfide bond between Cys^4 and Cys^11] (cyclo(YHACSA[dY][Dab]RYCYQ[Lys(iPr)][dP]P); disulfide 4-11), the GI50 at 48 h in data set [1] (setting [3]) is above 50 µM. Further, in data set [2], the level at 0.083 h is 1170 ng/mL, the level at 0.25 h is 999 ng/mL, the level at 0.5 h is 442 ng/mL and the level at 1 h was 402 ng/mL. In data set [2], the level at 2 h is 136 ng/mL, the level at 3 h was 26 ng/mL, the level at 4 h was 12 ng/mL and the AUC(0-inf) is 898 ng·h/mL. In data set [2], the maximum concentration (Cmax) amounted to 1310 ng/mL, the clearance was 18.6 mL/min/kg, the half-life is 30 min and the Vd came out at 0.762 L/kg.
For the compound `COc1ccc(C[C@H]2NC(=O)[C@H](C)NC(=O)[C@H](CO)NC(=O)[C@@H]3CSSC[C@H](NC(=O)[C@H](Cc4ccc(O)cc4)NC(=O)[C@H](CCCNC(=N)N)NC(=O)[C@H](CCCNC(C)C)NC2=O)C(=O)N[C@@H](Cc2ccc(O)cc2)C(=O)N[C@@H](CCC(N)=O)C(=O)N[C@@H](CCCCNC(C)C)C(=O)N2CCC[C@@H]2C(=O)N2CCC[C@H]2C(=O)N[C@@H](Cc2ccc(O)cc2)C(=O)N[C@@H](Cc2c[nH]cn2)C(=O)N[C@@H](C)C(=O)N3)cc1` [Ex. 4, cyclo(-Tyr^1-His^2-Ala^3-Cys^4-Ser^5-Ala^6-^DTyr(Me)^7-Orn(iPr)^8-Arg^9-Tyr^10-Cys^11-Tyr^12-Gln^13-Lys(iPr)^14-^DPro^15-Pro^16-), disulfide bond between Cys^4 and Cys^11] (cyclo(YHACSA[dY](Me)[Orn(iPr)]RYCYQ[Lys(iPr)][dP]P); disulfide 4-11), in data set [1], the GI50 at 48 h was above 50 µM. In addition, in data set [2], the level at 0.083 h is 1620 ng/mL, the level at 0.25 h was 869 ng/mL, the level at 0.5 h was 775 ng/mL and the level at 1 h was 504 ng/mL. Moreover, in data set [2], the level at 2 h is 159 ng/mL, the level at 3 h is 25 ng/mL, the level at 4 h is 13 ng/mL and the area under the curve AUC(0-inf) is 1340 ng·h/mL. For the same compound, in data set [2], the highest level (Cmax) was 1620 ng/mL, the clearance was 12.4 mL/min/kg, the half-life is 36 min and the Vd was determined as 0.607 L/kg.
On to `CC(C)NCCCC[C@@H]1NC(=O)[C@H](CCC(N)=O)NC(=O)[C@H](Cc2ccc(O)cc2)NC(=O)[C@@H]2CSSC[C@H](NC(=O)[C@H](Cc3ccc(O)cc3)NC(=O)[C@H](Cc3c[nH]cn3)NC(=O)[C@H](Cc3ccc(O)cc3)NC(=O)[C@@H]3CCCN3C(=O)[C@H]3CCCN3C1=O)C(=O)N[C@@H](CO)C(=O)N[C@@H](C)C(=O)N[C@H](Cc1ccc(O)cc1)C(=O)N[C@@H](CCCNC(C)C)C(=O)N[C@@H](CCCNC(=N)N)C(=O)N[C@@H](Cc1ccc(O)cc1)C(=O)N2` [Ex. 5, cyclo(-Tyr^1-His^2-Tyr^3-Cys^4-Ser^5-Ala^6-^DTyr^7-Orn(iPr)^8-Arg^9-Tyr^10-Cys^11-Tyr^12-Gln^13-Lys(iPr)^14-^DPro^15-Pro^16-), disulfide bond between Cys^4 and Cys^11] (cyclo(YHYCSA[dY][Orn(iPr)]RYCYQ[Lys(iPr)][dP]P); disulfide 4-11), for which the GI50 at 48 h in data set [1] (setting [3]) is above 50 µM. Further, in data set [2], the level at 0.083 h is 1310 ng/mL, the level at 0.25 h is 984 ng/mL, the level at 0.5 h was 350 ng/mL and the level at 1 h was 503 ng/mL. For the same compound, in data set [2], the level at 2 h is 150 ng/mL, the level at 3 h was 49 ng/mL, the level at 4 h was 33 ng/mL and the AUC(0-inf) came to 1200 ng·h/mL. Also, in data set [2], the highest level (Cmax) was 1310 ng/mL, the clearance was 13.9 mL/min/kg, the half-life was 54 min and the Vd was 1.04 L/kg.
